One assay deals with T1, rat GPR40 (Rattus norvegicus, UniProt Q8K3T4).
T1 construct: expressed in transfected cells
Put plainly: GPR40 calcium flux assay, HEK293 cells stably expressing rat GPR40. In kind it is cell-based. The settings on record: transfected HEK293 cells stably expressing rat GPR40, Fluo 8 dye, read-out: rGPR40 Ca2+ Assay EC50. In general terms: A change in cytosolic calcium serves as a functional read-out for many receptors and channels.

The test system of another assay is Male SD rats. The assay is described as follows: Oral Glucose Tolerance Test, Version A. It counts as in vivo, rat. The settings on record: Assay Version A: fasted male SD rats, dosed 30 min prior to oGTT (glucose 2 g/kg po); blood glucose AUC t=0 to 120 min vs vehicle. As to the method:
Male SD rats (200-250 g) were housed 2 per cage in a temperature-controlled room with a 12-hour light/dark cycle. They were allowed ad libitum access to water and fed with normal rodent chow. The night before the oral glucose tolerance test (oGTT), the rats were transferred to clean cages and fasted overnight. On the morning of the oGTT, the rats were weighed and randomized into groups based on fasted blood glucose and body weight. Rats were dosed with vehicle (0.5% methocel) or compounds thirty min prior to the oGTT (glucose, 2 g/kg, po). Blood was collected from the tail vein at 0, 10, 30, 60 and 120 minutes after glucose challenge to measure blood glucose; plasma was used to determine insulin levels. The area under the curve for blood glucose excursion was calculated from t=0 to t=120 minutes. Percent lowering of glucose was calculated from the AUC data with respect to the vehicle-treated group.

In a further assay the target is T2, human GPR40 (Homo sapiens, UniProt O14842).
T2 construct: expressed in transfected cells
T2 sequence (O14842 whole entry): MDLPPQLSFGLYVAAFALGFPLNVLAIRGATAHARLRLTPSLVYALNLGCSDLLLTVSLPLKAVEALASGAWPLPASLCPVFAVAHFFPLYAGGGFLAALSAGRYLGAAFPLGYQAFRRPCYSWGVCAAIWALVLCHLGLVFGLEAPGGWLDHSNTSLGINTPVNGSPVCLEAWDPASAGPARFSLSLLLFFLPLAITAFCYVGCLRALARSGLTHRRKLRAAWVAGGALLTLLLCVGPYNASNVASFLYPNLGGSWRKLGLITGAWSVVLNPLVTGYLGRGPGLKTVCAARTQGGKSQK
Put plainly: GPR40 calcium flux assay, HEK293 cells stably expressing human GPR40. In kind it is cell-based. Conditions: transfected HEK293 cells stably expressing human GPR40, Fluo 8 dye, read-out: hGPR40 Ca2+ Assay EC50.

For the next assay, the system named is Male ZDF rats. Put plainly: Oral Glucose Tolerance Test, Version B. In kind it is in vivo, rat. The settings on record: Assay Version B: fasted male ZDF rats, compound 10 mg/kg 120 min prior to OGTT (glucose 1 g/kg po); blood glucose AUC t=0 to 120 min vs vehicle. As for the experimental part: Male ZDF rats (7 weeks old, 200-240 g) were housed 2 per cage in a temperature-controlled room with a 12-hour light/dark cycle. They were allowed ad libitum access to water and fed with 5008 rodent chow. The night before the oral glucose tolerance test (OGTT), the rats were transferred to clean cages and fasted overnight. On the morning of the OGTT, the rats were weighed and randomized into groups based on fasted blood glucose and body weight. Rats were dosed with vehicle (0.5% Methocel) or compound (10 mg/kg) 120 min prior to the OGTT (glucose, 1 g/kg, po). Blood was collected from the tail vein at 0, 10, 30, 60 and 120 minutes after glucose challenge to measure blood glucose; plasma was used to determine insulin levels. The area under the curve for blood glucose excursion was calculated from t=0 to t=120 minutes. Percent lowering of glucose was calculated from the AUC data with respect to the vehicle-treated group.

Here are results for six compounds from patent US10988433B2, “Cyclohexyl GPR40 agonists for the treatment of type II diabetes” (Janssen Pharmaceutica NV, priority 2016, dated 2021).

What is called EC50 is the concentration giving half of the maximal effect.

T1 sequence (Q8K3T4 whole entry): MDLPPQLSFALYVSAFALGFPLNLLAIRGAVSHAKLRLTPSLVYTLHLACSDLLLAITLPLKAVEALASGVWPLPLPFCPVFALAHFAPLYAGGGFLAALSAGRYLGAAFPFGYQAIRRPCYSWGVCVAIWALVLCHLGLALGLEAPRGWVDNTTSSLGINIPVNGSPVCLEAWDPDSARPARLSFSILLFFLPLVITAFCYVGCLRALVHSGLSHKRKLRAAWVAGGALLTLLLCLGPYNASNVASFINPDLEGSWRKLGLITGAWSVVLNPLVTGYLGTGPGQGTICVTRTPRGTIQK

Take `COc1ccc(F)c([C@H]2CC[C@H](COc3cccc([C@@H](CC(=O)O)C4CC4)c3)CC2)c1` [Cpd 2, (S)-3-Cyclopropyl-3-(3-(((1r,4 S)-4-(2-fluoro-5-methoxyphenyl)cyclohexyl)methoxy)phenyl) propanoic acid]: the concentration for a half-maximal effect (EC50) came to 3.4 nM on rat GPR40 and 0.8 nM at human GPR40. Also, the “Percent Lowering of Glucose (AUC compound vs. AUC Vehicle)” value (“Percent Lowering of Glucose” for short) with Male SD rats worked out at 33%.
For the compound `COc1ccc(F)c([C@H]2CC[C@H](COc3cccc([C@H](C4CC4)[C@@](C)(F)C(=O)O)c3)CC2)c1` [Cpd 59, (2R,3S)-3-Cyclopropyl-2-fluoro-3-(3-(((1r,4S)-4-(2-fluoro-5-methoxyphenyl)cyclohexyl)methoxy)phenyl)-2-methylpropanoic acid], the concentration for a half-maximal effect (EC50) on rat GPR40 came to 0.72 nM; on human GPR40 it was 0.27 nM. In the assay with Male ZDF rats, the “Percent Lowering of Glucose” value is on record as 48%.
Consider `COc1ccc(F)c([C@H]2CC[C@H](COc3cc([C@@H](CC(=O)O)C4CC4)ccn3)CC2)c1` [Cpd 27, (S)-3-Cyclopropyl-3-(2-(((1r,4s)-4-(2-fluoro-5-methoxyphenyl)cyclohexyl)methoxy)pyridin-4-yl)propanoic acid], for which the 50% effective concentration (EC50) on rat GPR40 came to 0.9 nM; at human GPR40 it was 0.2 nM. Moreover, the “Percent Lowering of Glucose” value in the assay on Male SD rats is recorded as 32%.
As to `COc1ccc(F)c([C@H]2CC[C@@H](COc3cccc([C@@H](CC(=O)O)C4CC4)c3)CC2)c1` [Cpd 1, (S)-3-Cyclopropyl-3-(3-(((1s,4R)-4-(2-fluoro-5-methoxyphenyl)cyclohexyl)methoxy)phenyl) propanoic acid], the EC50 was found to be 105 nM at rat GPR40 and 36.2 nM on human GPR40. Moreover, in the assay on Male SD rats, the “Percent Lowering of Glucose” value was 11%.
For `COc1cc([C@H]2CC[C@H](COc3cc([C@@H](CC(=O)O)C4CC4)ccn3)CC2)c(F)cn1` [Cpd 25, (S)-3-Cyclopropyl-3-(2-(((1r,4S)-4-(5-fluoro-2-methoxypyridin-4-yl)cyclohexyl)methoxy)pyridin-4-yl)propanoic acid] the same measures were 1.3 nM, 5.3 nM and 28%.
As for `COc1ccc(F)c([C@H]2CC[C@@H](COc3cccc([C@H](CC(=O)O)C4CC4)c3)CC2)c1` [Cpd 37, (R)-3-Cyclopropyl-3-(3-(((1s,4S)-4-(2-fluoro-5-methoxyphenyl)cyclohexyl)methoxy)phenyl)propanoic acid], the values for the EC50 on rat GPR40 and on human GPR40 were 1320 nM and 687 nM, respectively.
